Test results: BigSolDB 2.1

O=C1CCc2cc(O)ccc2N1
solubility (mole fraction)
Settings	in THF	in acetonitrile	in ethanol	in ethyl acetate	in isobutanol	in isopropanol	in methanol	in methyl acetate	in n-butanol	in n-propanol
278.15 K	0.00248	0.000292	0.00214	0.000666	0.00114	0.00186	0.00224	0.00155	0.00181	0.00173
283.15 K	0.00277	0.000345	0.00242	0.000723	0.00134	0.00226	0.0027	0.00172	0.00201	0.00202
288.15 K	0.00307	0.000403	0.00281	0.000792	0.00162	0.0026	0.00309	0.00188	0.00232	0.00236
293.15 K	0.00346	0.00048	0.00324	0.00086	0.00192	0.003	0.00356	0.00209	0.00269	0.0027
298.15 K	0.00383	0.000576	0.00373	0.000927	0.00229	0.00346	0.00412	0.00231	0.00309	0.00314
303.15 K	0.00424	0.000668	0.00431	0.000992	0.00268	0.00395	0.0048	0.00257	0.00357	0.00364
308.15 K	0.00473	0.000784	0.00496	0.00108	0.00316	0.00471	0.00551	0.00287	0.00409	0.00419
313.15 K	0.00526	0.000887	0.00574	0.00115	0.00378	0.0055	0.00648	0.00316	0.00473	0.00482
318.15 K	0.00591	0.00102	0.00664	0.00122	0.00427	0.00631	0.00745	0.00352	0.00543	0.00554
323.15 K	0.00651	0.00118	0.00761	0.00131	0.00493	0.00721	0.00838	0.00391	0.00623	0.00641
